Here are results for 5 compounds from DBAASP.

Converted amounts (≈) assume the structure as drawn. “And” between values parts separate entries of the source, which are not always exact repeats. Equal values may be shown once.

Among the test systems are Staphylococcus aureus; Corynebacterium xerosis; Salmonella typhimurium; Pseudomonas aeruginosa; Escherichia coli; Enterococcus faecalis; Staphylococcus aureus MR; Escherichia coli 363; Aeromonas hydrophila; Bacillus subtilis; Micrococcus luteus; Vibrio anguillarum; Aerococcus viridans; Vibrio harveyi; Saccharomyces cerevisiae; Staphylococcus capitis 1; Escherichia coli D21; Acinetobacter junii RT-4; Bacillus megaterium Bm11.

What all share (test): ≥ marks a high value that may be exact or a test limit, other limits are often not marked, values filed in µg/mL are converted to µM
The subject of assay [1] is Staphylococcus epidermidis.
Assay [2] has as its system Enterococcus faecalis ATCC 29212.
Assay [3] deals with Listeria monocytogenes NCTC 7973.
Assay [4] relates to Staphylococcus haemolyticus.
In assay [5] the test system is Streptococcus pyogenes ATCC 19615.
Assay [6] has as its system Staphylococcus aureus SAP 0017.
Assay [7] relates to Staphylococcus aureus ATCC 25923.
In assay [8] the test system is Vibrio harveyi CGMCC 1.1593.
Assay [9] has as its system Pseudomonas aeruginosa ATCC 27853.
Assay [10] deals with Escherichia coli ATCC 25922.
The subject of assay [11] is Staphylococcus aureus ATCC 29313.
Assay [12] deals with Xanthomonas axonopodis pv. citri.
Assay [13] relates to Pseudomonas aeruginosa ATCC 15692.
In assay [14] the test system is Acinetobacter baumannii ATCC 19606.
For assay [15], the system named is Streptococcus pyogenes ATCC 21547.
Assay [16] deals with Schizosaccharomyces pombe.
For assay [17], the system named is Staphylococcus epidermidis ATCC 12228.
The subject of assay [18] is Yersinia pseudotuberculosis YPIII.
For assay [19], the system named is Staphylococcus aureus Cowan 1.
Assay [20] relates to Pseudomonas syringae pv. tabaci 1918NCPPB.
Assay [21] concerns Candida albicans ATCC 10231.
In assay [22] the test system is Salmonella typhimurium CCARM 8009.
The test system of assay [23] is Campylobacter jejuni KCTC 5327.
Assay [24] deals with Listeria monocytogenes KCTC 3710.
Assay [25] relates to Listeria monocytogenes KCCM 43155.
The subject of assay [26] is Salmonella typhimurium CCARM 8013.
In assay [27] the test system is Streptococcus suis KCTC 3557.
The test system of assay [28] is Listeria monocytogenes KCCM 40307.
The test system of assay [29] is Salmonella enterica subsp. enterica serovar Typhimurium ATCC 14028.

A word on the MIC: it is the lowest concentration found to suppress growth. Low values mean greater potency, high ones weaker potency.

Turning to `CC[C@H](C)[C@H](N)C(=O)N[C@@H](CC(C)C)C(=O)N[C@@H](CCCCN)C(=O)N[C@@H](CCCCN)C(=O)N[C@@H](Cc1c[nH]c2ccccc12)C(=O)N1CCC[C@H]1C(=O)N[C@@H](Cc1c[nH]c2ccccc12)C(=O)N[C@@H](Cc1c[nH]c2ccccc12)C(=O)N1CCC[C@H]1C(=O)N[C@@H](Cc1c[nH]c2ccccc12)C(=O)N[C@@H](CCCN=C(N)N)C(=O)N[C@@H](CCCN=C(N)N)C(=O)N[C@@H](CCCCN)C(N)=O` [ILKKWPWWPWRRK], the minimum inhibitory concentration (MIC) in [1] was 4.25 µM and 2.13 µM; in assay [2] it was over 34 µM; in the assay with Staphylococcus aureus, 8.51 µM (≈ 16 µg/mL); in the assay on Corynebacterium xerosis, 0.266 µM (≈ 0.5 µg/mL); in [3], 8.51 µM (≈ 16 µg/mL); in assay [4], 1.06 µM and 0.532 µM. The minimum inhibitory concentration (MIC) in assay [5] is 4.25 µM (≈ 8 µg/mL); in the assay with Salmonella typhimurium, at least 34 µM; in the assay on Pseudomonas aeruginosa, 8.51 µM (≈ 16 µg/mL); with Escherichia coli, 2.13 µM and 4.25 µM; in assay [6], 8.51 µM (≈ 16 µg/mL); in the assay with Enterococcus faecalis, at least 34 µM. The MIC (in assay [7]; with Staphylococcus aureus MR) was 8.51 µM (≈ 16 µg/mL) each time.

Regarding `CC[C@H](C)[C@@H]1NC(=O)[C@@H]2CSSC[C@H](NC(=O)[C@@H]3CCCN3C(=O)[C@H](CO)NC(=O)[C@H](CCCN=C(N)N)NC1=O)C(=O)N1CCC[C@H]1C(=O)N[C@H](C(=O)N[C@@H](C)C(=O)N[C@@H](CC(N)=O)C(=O)N[C@@H](Cc1ccc(O)cc1)C(=O)NCC(=O)O)CSSC[C@H](NC(=O)CNC(=O)[C@@H]1CCCN1C(=O)[C@H](CCCN=C(N)N)NC(=O)CNC(=O)CNC(=O)[C@H](Cc1ccccc1)NC(=O)[C@H](CCC(N)=O)NC(=O)CNC(=O)CNC(=O)[C@@H](NC(=O)[C@H](Cc1ccccc1)NC(=O)[C@@H]1CCCN1C(=O)[C@H](CCCN=C(N)N)NC(=O)CNC(=O)CNC(=O)[C@H](Cc1ccccc1)NC(=O)[C@@H]1CCCN1C(=O)[C@H](CCCN=C(N)N)NC(=O)CNC(=O)[C@H](Cc1ccc(O)cc1)NC(=O)[C@H](CCCN=C(N)N)NC(=O)[C@H](CCCN=C(N)N)NC(=O)[C@H](CO)NC(=O)[C@@H](NC(=O)[C@H](CCCN=C(N)N)NC(=O)[C@@H]1CCCN1C(=O)[C@@H](N)CO)C(C)C)C(C)C)C(=O)N[C@@H](C(C)C)C(=O)N2` [SPRVSRRYGRPFGGRPFVGGQFGGRPGCVCIRSPCPCANYG], the minimum inhibitory concentration (MIC) against Escherichia coli 363 is at least 50 µM; against Aeromonas hydrophila it was at least 50 µM; in assay [4] it was 12.5 µM (≈ 54.6 µg/mL); with Bacillus subtilis, 12.5 µM and 10.1 µM; in [8] it was 5.06 µM (≈ 22.1 µg/mL); against Micrococcus luteus, 0.78 µM (≈ 3.41 µg/mL). The MIC in the assay with Vibrio anguillarum was determined as 6.25 µM (≈ 27.3 µg/mL); in the assay on Aerococcus viridans, 0.39 µM (≈ 1.7 µg/mL); in the assay with Vibrio harveyi, 1.56 µM (≈ 6.82 µg/mL).

On to `CC(C)C[C@H](NC(=O)[C@H](C)NC(=O)[C@@H](NC(=O)[C@@H](N)CCCCN)C(C)C)C(=O)NCC(=O)N[C@H](C(=O)N[C@@H](C)C(=O)N[C@@H](CCC(N)=O)C(=O)N[C@@H](CC(N)=O)C(=O)N[C@@H](Cc1ccc(O)cc1)C(=O)N[C@@H](CC(C)C)C(=O)N[C@@H](CC(N)=O)C(=O)N1CCC[C@H]1C(=O)N[C@@H](CCC(N)=O)C(=O)N[C@@H](CCC(N)=O)C(=O)O)C(C)C` [KVALGVAQNYLNPQQ], for which the minimum inhibitory concentration (MIC) is over 156 µM in assay [9], over 156 µM in [10], at least 156 µM in assay [11] and at least 156 µM in assay [12].

Regarding `CC[C@H](C)[C@H](NC(=O)[C@H](CCCN=C(N)N)NC(=O)CNC(=O)[C@H](CC(C)C)NC(=O)[C@H](Cc1ccccc1)NC(=O)[C@H](CCCCN)NC(=O)[C@H](CO)NC(=O)[C@H](Cc1ccccc1)NC(=O)[C@H](Cc1c[nH]c2ccccc12)NC(=O)[C@@H]1CCCN1C(=O)[C@H](CC(C)C)NC(=O)[C@@H](N)Cc1ccccc1)C(=O)N[C@@H](CC(C)C)C(N)=O` [FLPWFSKFLGRIL], the minimal inhibitory concentration (MIC) in [13] was at least 48 µM; in [14], 12 µM (≈ 19.5 µg/mL); in [15] it was 6 µM (≈ 9.74 µg/mL); in [2] it was 12 µM (≈ 19.5 µg/mL); in the assay with Saccharomyces cerevisiae, 12 µM (≈ 19.5 µg/mL); in [16] it was 6 µM (≈ 9.74 µg/mL). In addition, the MIC in assay [17] was determined as 3 µM (≈ 4.87 µg/mL); against Staphylococcus capitis 1, 3 µM (≈ 4.87 µg/mL); against Escherichia coli D21, 24 µM (≈ 39 µg/mL); in [18], 6 µM (≈ 9.74 µg/mL); against Acinetobacter junii RT-4, 12 µM (≈ 19.5 µg/mL); against Bacillus megaterium Bm11, 3 µM (≈ 4.87 µg/mL). In addition, the minimum inhibitory concentration (MIC) was 12 µM (≈ 19.5 µg/mL) in [10]; 3 µM (≈ 4.87 µg/mL) in assay [19]; 3 µM (≈ 4.87 µg/mL) in assay [7]; 12 µM (≈ 19.5 µg/mL) in assay [20]; 12 µM (≈ 19.5 µg/mL) in [21].

In the case of `CC(C)C[C@H](NC(=O)[C@H](CO)NC(=O)[C@H](CC(C)C)NC(=O)[C@H](CC(C)C)NC(=O)[C@H](CO)NC(=O)CNC(=O)[C@H](Cc1ccccc1)NC(=O)[C@@H](N)Cc1ccccc1)C(=O)NCC(=O)N[C@@H](CO)C(=O)N[C@@H](CCCCN)C(=O)N[C@@H](CC(C)C)C(=O)N[C@@H](CC(C)C)C(=O)N1CCC[C@H]1C(=O)N[C@@H](CO)C(=O)N[C@H](C(=O)N[C@@H](Cc1ccccc1)C(=O)N[C@@H](CCCCN)C(=O)N[C@@H](CC(C)C)C(=O)N[C@@H](Cc1ccccc1)C(=O)N[C@@H](CCC(N)=O)C(=O)N[C@@H](CCCN=C(N)N)C(=O)N[C@@H](CCCCN)C(=O)N[C@@H](CCCCN)C(=O)N[C@@H](CCC(=O)O)C(N)=O)C(C)C` [FFGSLLSLGSKLLPSVFKLFQRKKE], the minimum inhibitory concentration (MIC) was determined as 4 µM (≈ 11.5 µg/mL) in [22]; 2 µM (≈ 5.74 µg/mL) in assay [23]; 2 µM (≈ 5.74 µg/mL) in [24]; 2 µM (≈ 5.74 µg/mL) in assay [25]; 4 µM (≈ 11.5 µg/mL) in assay [26]; 2 µM (≈ 5.74 µg/mL) in assay [27]. For the same compound, the minimal inhibitory concentration (MIC) was 2 µM (≈ 5.74 µg/mL) in assay [28] and 4 µM (≈ 11.5 µg/mL) in assay [29].
